Common to all, as to assay: NCI anticancer screen, dose series, 48 h
In assay [1] the test system is MDA-N.
Assay [2] has as its system SR.
Assay [3] relates to SK-OV-3.
Assay [4] concerns Hs-578T.
Assay [5] relates to UACC-62.
The test system of assay [6] is HCC 2998.
Assay [7] concerns HCT-15.
The subject of assay [8] is Malme-3M.
In assay [9] the test system is HOP-62.
The test system of assay [10] is OVCAR-3.
Assay [11] deals with SK-MEL-5.
Assay [12] has as its system HOP-92.
The test system of assay [13] is MCF7.
Assay [14] concerns CCRF-CEM.
For assay [15], the system named is 786-0.
In assay [16] the test system is BT-549.

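Growth conditions: 96-well plates. Treatment: test compound, 48 hours, 5 concentrations. Analysis: linear interpolation between bracketing concentrations; unreached endpoints set to highest concentration. GI50: concentration for 50% inhibition of growth.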 Calls of active or inactive are those of the source. Cut-off read from the data, not from the text of the source: active = GI50 up to about 1.1 µM and inactive = higher.

Turning to `O=C1Sc2ccccc2/C1=N/Nc1ccccc1[N+](=O)[O-]`, the GI50 in [1] was 57 µM (inactive); in assay [2], > 100 µM (inactive); in [3], 86.9 µM (inactive); in assay [4], 36.1 µM (inactive); in assay [5] it was > 100 µM (inactive); in assay [6] it was > 100 µM (inactive). Moreover, the GI50 in assay [7] was greater than 100 µM; in assay [8] it was 94.8 µM (inactive); in assay [9], > 100 µM (inactive); in assay [10], > 100 µM (inactive); in assay [11], 65.2 µM (inactive); in [12], > 100 µM (inactive). Also, the GI50 was 17 µM (inactive) in assay [13] and > 100 µM (inactive) in assay [14].

On to `Nc1ccc(Sc2nnc(N)s2)cc1`, for which the GI50 in assay [1] was > 100 µM (inactive); in [2], > 100 µM (inactive); in assay [3] it was > 100 µM (inactive); in assay [4], > 100 µM (inactive); in assay [6], > 100 µM (inactive); in [7], greater than 100 µM. In addition, the GI50 in assay [9], in [11], in [13], in [14] and in assay [15] was > 100 µM (inactive) throughout.

On to `CCCCCCCCCCCCCCCCCc1cc(Cl)nc(Cl)n1`, for which the GI50 in assay [2], in assay [16], in assay [3], in [4], in assay [5] and in [6] was > 100 µM (inactive) in each case. Moreover, the GI50 in assay [7] was greater than 100 µM; in [8] it was > 100 µM (inactive); in assay [9], > 100 µM (inactive); in assay [10], > 100 µM (inactive); in [11], > 100 µM (inactive); in [13], 36.6 µM (inactive). Moreover, the GI50 in [14] and in assay [15] was > 100 µM (inactive) throughout.

`O=C1N/C(=N/N=C/c2c[nH]c3ccccc23)N/C1=C\c1cccs1`: the GI50 was > 100 µM (inactive) in assay [1]; > 100 µM (inactive) in assay [16]; 38.6 µM (inactive) in assay [3]; > 100 µM (inactive) in assay [4]; 73.3 µM (inactive) in [5]; greater than 100 µM in assay [7]. Further, the GI50 in assay [8] was 61.8 µM (inactive); in [9] it was > 100 µM (inactive); in assay [10], 30.7 µM (inactive); in assay [11], 70.3 µM (inactive); in assay [12] it was 49 µM (inactive); in assay [13] it was 41.4 µM (inactive). The values for the GI50 in [14] and in assay [15] were 4.44 µM (inactive) and > 100 µM (inactive), respectively.

On to `CCSc1nc(N/N=C/c2cccs2)c2cnn(CO)c2n1`, for which the GI50 in assay [2] was 5.9 µM (inactive); in assay [3] it was 14.6 µM (inactive); in assay [4] it was 4.31 µM (inactive); in [5] it was 10.4 µM (inactive); in assay [7], 4.88 µM; in assay [8] it was 13.8 µM (inactive). In addition, the GI50 is 4.25 µM (inactive) in assay [9]; 5.86 µM (inactive) in [10]; 3.46 µM (inactive) in assay [11]; 16.9 µM (inactive) in assay [12]; 3.59 µM (inactive) in [13]; 0.0614 µM (active) in assay [15].

On to `COc1cc(O)cc(/C=C/c2ccc(O)cc2)c1`, for which the GI50 in assay [2] was 42 µM (inactive); in assay [16], 13.6 µM (inactive); in assay [3], > 100 µM (inactive); in assay [4], 44.7 µM (inactive); in assay [5] it was 20.7 µM (inactive); in [7] it was 10.1 µM. Moreover, the GI50 in assay [8] is 32.6 µM (inactive); in assay [9], 28.8 µM (inactive); in assay [10] it was 41.3 µM (inactive); in assay [11] it was 30.7 µM (inactive); in assay [12], 21.6 µM (inactive); in [13], 49.2 µM (inactive). The GI50 in [15] was 29.6 µM (inactive).
